Measured values taken from patent US9050312B2, “Strontium compound for treatment of sub-dermal soft tissue pain” (SANTOSOLVE AS, priority 2001, dated 2015).

Tested on: severe pain in the neck and shoulders
Assay: Clinical testing: severe pain in the neck and shoulders after a car accident
Assay type: in vivo, human
Settings: person; had not slept continuously any night since the accident
Description: A person was involved in a car accident seven years earlier and had developed severe pain in the neck and shoulders. The patient had used non-steroidal anti-inflammatory drugs for a long time without significant effect. They had not slept continuously any night since the accident.
The patient tried the composition of Example 19 by administering topically to the areas of pain. They claimed a pain relieving effect after one minute and had no or very little pain for the following 2 to 3 days. After administration of the composition of Example 13 they were able to sleep for about 10 hours each of the next two nights.

## CNCC(O)C(O)C(O)C(O)CO.CNCC(O)C(O)C(O)C(O)CO.O=C([O-])CN(CCN(CC(=O)O)CC(=O)O)CC(=O)[O-].[Sr+2] [Example 13, SrEDTA Dimeglumine Salt]
  sleep each of the next two nights: about 10 hours
